In patent US20140296065A1, “USE OF 5-FLUOROCYTOSINE AS A FUNGICIDE” (DOW AGROSCIENCES LLC, priority 2008, published 2014):
Read-outs that look alike come from different tables or passages of the source.

Tests used:
Assay type in all cases: in vivo
[1] = tested on: Mycosphaerella graminicola; anamorph: Septoria tritici; Bayer code SEPTTR; experiment: Leaf Blotch of Wheat fungicidal activity; settings: for pest or weed control at 100 ppm: Zymoseptoria tritici
Method: (§1) For the following examples, 5-fluorocytosine or a 5-fluorocytosine derivative was either dissolved in acetone or water, and dilutions were performed to obtain desirable rates. The spray solutions contained either 0.01% triton X-100 or 0.1% Trycol 5941. For high-volume spray, plants were sprayed to run-off using an automated booth sprayer. For a low-volume test, fungicide was applied using a track sprayer with application volume of 200 liters/hectare (L/H).
(§2) Plants were inoculated with fungal pathogens either 3 days before compound application (3-day curative test; 3DC) or 1 day after compound application (1-day protectant test; 1DP).
• 1. Evaluation of Fungicidal Activity: Leaf Blotch of Wheat (Mycosphaerella graminicola; anamorph: Septoria tritici; Bayer code SEPTTR):
Wheat plants (variety Yuma) were grown from seed in a greenhouse in 50% mineral soil/50% soil-less Metro mix until the first leaf was fully emerged, with 7-10 seedlings per pot. These plants were inoculated with an aqueous spore suspension of Septoria tritici either prior to or after fungicide treatments. After inoculation the plants were kept in 100% relative humidity (one day in a dark dew chamber followed by two to three days in a lighted dew chamber) to permit spores to germinate and infect the leaf. The plants were then transferred to a greenhouse for disease to develop. • 2. Evaluation of Fungicidal Activity: Glume Blotch of Wheat (Leptosphaeria nodorum; Bayer code LEPTNO; anamorph: Stagonospora nodorum):
(§3) The following tables present the activity of 5-fluorocytosine (Table I) or a 5-fluorocytosine derivative (Table II) when evaluated in these experiments. The effectiveness of 5-fluorocytosine or 5-fluorocytosine derivative in controlling disease was determined by assessing the severity of disease on treated plants, then converting the severity to percent control based on the level of disease on untreated, inoculated plants. • In each case of Tables I and II the rating scale is as follows: […]

[2] = tested on: Cochliobolus sativum; Bayer code COCHSA; anamorph: Helminthosporium sativum; experiment: Spot Blotch of Barley fungicidal activity; settings: 200 ppm, 1DP (1-day protectant)
Method: For the following examples, 5-fluorocytosine or a 5-fluorocytosine derivative was either dissolved in acetone or water, and dilutions were performed to obtain desirable rates. The spray solutions contained either 0.01% triton X-100 or 0.1% Trycol 5941. For high-volume spray, plants were sprayed to run-off using an automated booth sprayer. For a low-volume test, fungicide was applied using a track sprayer with application volume of 200 liters/hectare (L/H). Plants were inoculated with fungal pathogens either 3 days before compound application (3-day curative test; 3DC) or 1 day after compound application (1-day protectant test; 1DP). […] Evaluation of Fungicidal Activity: Leaf Spot of Sugar Beets (Cercospora beticola; Bayer code CERCBE): The following tables present the activity of 5-fluorocytosine (Table I) or a 5-fluorocytosine derivative (Table II) when evaluated in these experiments. The effectiveness of 5-fluorocytosine or 5-fluorocytosine derivative in controlling disease was determined by assessing the severity of disease on treated plants, then converting the severity to percent control based on the level of disease on untreated, inoculated plants. • In each case of Tables I and II the rating scale is as follows: […]

[3] = tested on: Mycosphaerella fijiensis; BAYER code MYCOFI; experiment: Black Sigatoka Disease of Banana fungicidal activity
Method: as §1
Plants were inoculated with fungal pathogens either 3 days before compound application (3-day curative test; 3DC) or 1 day after compound application (1-day protectant test; 1DP). […]
Efficacy against Mycosphaerella fijiensis was tested using newly emerged leaves of field grown banana plants. […] The leaves were subsequently allowed to become infected by natural inoculum, and were visually assessed for percent disease control ˜40-45 days later.
as §3

[4] = tested on: Glomerella lagenarium; anamorph: Colletotrichum lagenarium; Bayer code COLLLA; experiment: Cucumber Anthracnose fungicidal activity; settings: 200 ppm, 1DP (1-day protectant)
[5] = tested on: Cercospora beticola; Bayer code CERCBE; experiment: Leaf Spot of Sugar Beets fungicidal activity; settings: 100 ppm, 1DP (1-day protectant)
[6] = tested on: Venturia inaequalis; Bayer code VENTIN; experiment: Apple Scab fungicidal activity; settings: 75 ppm
[7] = tested on: Leptosphaeria nodorum; Bayer code LEPTNO; anamorph: Stagonospora nodorum; experiment: Glume Blotch of Wheat fungicidal activity; settings: 100 ppm
Method: as §1, §2
Wheat plants (variety Yuma) were grown from seed in a greenhouse in 50% mineral soil/50% soil-less Metro mix until the first leaf was fully emerged, with 7-10 seedlings per pot. […]
as §3

[8] = 24 h, SEPTTR, wheat, 100 ppm, One-Day Protectant (1DP), % disease control rating, read-out: SEPTTR 100 PPM 1DP
[9] = 72 h, SEPTTR, wheat, 100 ppm, Three-Day Curative (3DC), % disease control rating, read-out: SEPTTR 100 PPM 3DC
[10] = 24 h, read-out: SEPTTR 100 PPM 1DP
[11] = 72 h, read-out: SEPTTR 100 PPM 3DC

Row | SMILES | pest or weed control at 100 ppm [1, 8] [%] | pest or weed control at 100 ppm [1, 9] [%] | further results
1 | Nc1nc(=O)[nH]cc1F [5-FC, 5-Fluorocytosine] |  |  | % Disease Control of 5-FC ([1]; SEPTTR, wheat, 100 ppm, 3DC (3-day curative)): A (76-100); % Disease Control of 5-FC ([1]; SEPTTR, wheat, 200 ppm, 1DP (1-day protectant)): A (76-100); % Disease Control of 5-FC [2]: C (26-50); % Disease Control of 5-FC ([3]; 100 ppm, 3DC (3-day curative)): B (51-75); % Disease Control of 5-FC ([3]; 200 ppm, 1DP (1-day protectant)): B (51-75); % Disease Control of 5-FC [4]: A (76-100); % Disease Control of 5-FC [5]: A (76-100); % Disease Control of 5-FC ([6]; 1DP (1-day protectant)): A (76-100); % Disease Control of 5-FC ([6]; 3DC (3-day curative)): A (76-100); % Disease Control of 5-FC ([7]; 1DP (1-day protectant)): D (0-25); % Disease Control of 5-FC ([7]; 3DC (3-day curative)): C (26-50)
2 | CC(=O)Nc1nc(O)ncc1F [Cmpd 2] | 76 to 100 | 76 to 100 | 
3 | CCC(=O)Nc1nc(O)ncc1F [Cmpd 3] | 76 to 100 | 76 to 100 | 
4 | CC(C)(C)C(=O)Nc1nc(O)ncc1F [Cmpd 4] | 76 to 100 | 76 to 100 | 
5 | Cc1ccc(C(=O)Nc2nc(O)ncc2F)cc1 [Cmpd 5] | 76 to 100 | 51 to 75 | 
6 | O=C(Nc1nc(O)ncc1F)c1ccc(Cl)cc1 [Cmpd 6] | 76 to 100 | 26 to 50 | 
7 | CC(C)COC(=O)Nc1nc(O)ncc1F [Cmpd 7] | 51 to 75 | 51 to 75 | 
8 | CCCCCC(=O)Nc1nc(O)ncc1F [Cmpd 8] | 76 to 100 | 76 to 100 | 
9 | CCCCCCCCCCCC(=O)Nc1nc(O)ncc1F [Cmpd 9] | 76 to 100 | 26 to 50 | 
10 | CCC(CC)C(=O)Nc1nc(O)ncc1F [Cmpd 10] | 26 to 50 | 0 to 25 | 
11 | CCCC(=O)Nc1nc(O)ncc1F [Cmpd 11] | 76 to 100 | 76 to 100 | 
12 | O=C(Nc1nc(O)ncc1F)c1ccccc1 [Cmpd 12] | 76 to 100 | 76 to 100 | 
13 | CC(C)C(=O)Nc1nc(O)ncc1F [Cmpd 13] | 76 to 100 | 76 to 100 | 
14 | COC(=O)Nc1nc(O)ncc1F [Cmpd 14] | 26 to 50 | 0 to 25 | 
15 | Cc1ccc(OC(=O)Nc2nc(O)ncc2F)cc1 [Cmpd 15] |  |  | pest or weed control at 100 ppm [1, 10]: 76 to 100%; pest or weed control at 100 ppm [1, 11]: 51 to 75%
16 | O=C(Nc1nc(O)ncc1F)Oc1ccccc1 [Cmpd 16] |  |  | pest or weed control at 100 ppm [1, 10]: 76 to 100%; pest or weed control at 100 ppm [1, 11]: 76 to 100%
17 | CCONc1nc(O)ncc1F [Cmpd 17] | 26 to 50 | 76 to 100 | 
18 | CNc1nc(O)ncc1F [Cmpd 18] | 0 to 25 | 51 to 75 | 
19 | CCCCCOC(=O)Nc1nc(O)ncc1F [Cmpd 19] | 0 to 25 | 0 to 25 | 
20 | COc1ccc(C(=O)Nc2nc(O)ncc2F)cc1 [Cmpd 20] | 0 to 25 | 0 to 25 | 
21 | COc1cccc(C(=O)Nc2nc(O)ncc2F)c1 [Cmpd 21] | 0 to 25 | 0 to 25 | 
22 | COc1ccccc1C(=O)Nc1nc(O)ncc1F [Cmpd 22] | 0 to 25 | 0 to 25 | 
23 | O=C(Nc1nc(O)ncc1F)c1cccc(Br)c1 [Cmpd 23] | 26 to 50 | 0 to 25 | 
24 | O=C(Nc1nc(O)ncc1F)c1ccccc1Cl [Cmpd 24] | 26 to 50 | 26 to 50 | 
